We go through 68 compounds from patent US20240092770A1, “Heterocycle RMB39 Modulators” (Recursion Pharmaceuticals, Inc., priority 2022, published 2024).

For the experiment, the target named is RBM39 and the DCAF15 complex (RBM39-Flag / His-DCAF15-DDA1-DDB1) (Homo sapiens (Human), UniProt Q14498+Q66K64). The experiment is described as follows: DCAF15 RBM39 complex formation TR-FRET assay. In kind it is binding. As to conditions: RBM39(R150-D331) 3xFlag 50 nM, His-DCAF15-DDA1-DDB1 10 nM, 60 min room temperature. As to the method: A TR-FRET assay was used to assess the effect of compounds disclosed herein on the interaction between RBM39 and the DCAF15 complex. Test compounds were dissolved to form a 10 mM DMSO stock solution. A 45 μL aliquot of the stock solution was transferred to a 384 pp-plate, and a threefold, 8-point dilution was performed via transferring 15 μL compound solution into 30 μL of DMSO. The plates were then spun at room temperature at 1,000 RPM for 1 minute.
A 30 nL aliquot of the diluted compound was transferred to a 384 well plate, which was incubated at room temperature for 15 minutes. Next, Solutions 1, 2, and 3 were prepared as described in the below tables. A 5 μL aliquot of Solution 2 was added to each well, followed by 5 μL of Solution 3 to start the reaction. The final volume of each well was 10 μL. The plates were incubated at room temperature for 60 minutes, and then read.
Next, an RBM39 (R150-D331) 3× Flag used in TR-FRET assay was prepared:
Recombinant RBM39 protein is composed of the R1R2 of RBM39 (aa 150 to 331; UniProt: Q14498). The coding sequence was sub-cloned into pGEX4T-1-RBM39-flag vector, expressed as a GST-fusion protein with N-terminal TEV protease cleavage site. A 3× Flag tag was added to the C-terminal of R1R2 used in a FRET assay.
`Cc1ccc(NS(=O)(=O)c2nccs2)c2[nH]cc(C#N)c12` [Compound 2] had an EC50 of 1.03 µM. Compound `Cc1ccc(NS(=O)(=O)c2ncc(Cl)s2)c2[nH]cc(C#N)c12` [Compound 3] displayed an EC50 of 0.429 µM. Turning to `Cc1ccc(NS(=O)(=O)c2cnc(Cl)s2)c2[nH]cc(C#N)c12` [Compound 7], the EC50 came out at 0.106 µM. As for `CCc1nc(S(=O)(=O)Nc2ccc(C)c3c(C#N)c[nH]c23)c[nH]1` [Compound 8, N-(3-cyano-4-methyl-1H-indol-7-yl)-2-ethyl-1H-imidazole-4-sulfonamide], the EC50 was determined as 0.787 µM. Consider `Cc1cnc(S(=O)(=O)Nc2ccc(C)c3c(C#N)c[nH]c23)s1` [Compound 9], for which a half-maximal response (EC50) required 0.436 µM.

Turning to `Cc1sc(S(=O)(=O)Nc2ccc(C)c3c(C#N)c[nH]c23)nc1C#N` [Compound 10], it took 0.0757 µM to reach a half-maximal effect (EC50). In turn, `Cc1sc(S(=O)(=O)Nc2ccc(C)c3c(C#N)c[nH]c23)nc1Br` [Compound 11] registered an EC50 of 0.108 µM. For `Cc1ccc(NS(=O)(=O)c2nc(C(F)(F)F)cs2)c2[nH]cc(C#N)c12` [Compound 12, N-(3-cyano-4-methyl-1H-indol-7-yl)-4-(trifluoromethyl)-1,3-thiazole-2-sulfonamide], a half-maximal response (EC50) required 0.384 µM. As to `Cc1ccc(NS(=O)(=O)c2nc(Br)cs2)c2[nH]cc(C#N)c12` [Compound 13], the EC50 was determined as 0.298 µM.

`Cc1ccc(NS(=O)(=O)c2cnc(C(F)(F)F)s2)c2[nH]cc(C#N)c12` [Compound 24] gave an EC50 of 0.269 µM.

`N#Cc1c[nH]c2c(NS(=O)(=O)c3nccs3)cccc12` [Compound 27] showed an EC50 of 2.8 µM. In the case of `Cc1ccc(NS(=O)(=O)c2ncc(-c3cccnc3)s2)c2[nH]cc(C#N)c12` [Compound 32] it was 0.136 µM; in that of `N#Cc1c[nH]c2c(NS(=O)(=O)c3cnc(C(F)(F)F)s3)cccc12` [Compound 34], 0.301 µM; in that of `Cc1ccc(NS(=O)(=O)c2ncc(-c3ccncc3)s2)c2[nH]cc(C#N)c12` [Compound 36], 0.354 µM. The compound `Cc1ccc(NS(=O)(=O)c2ncc(-c3ccccn3)s2)c2[nH]cc(C#N)c12` [Compound 37] came in with an EC50 of 0.427 µM. The compound `CCc1nc(S(=O)(=O)Nc2cccc3c(C#N)c[nH]c23)c[nH]1` [Compound 38] displayed an EC50 of 4.19 µM. With `Cc1ccc(NS(=O)(=O)c2c[nH]c(C(C)C)n2)c2[nH]cc(C#N)c12` [Compound 39], a half-maximal effect (EC50) was put at 0.52 µM. In the case of `Cc1ccc(NS(=O)(=O)c2cnc(Br)s2)c2[nH]cc(C#N)c12` [Compound 40], the EC50 turned out to be 0.275 µM.

In turn, `Cc1ccc(NS(=O)(=O)c2nc(CCO)cs2)c2[nH]cc(C#N)c12` [Compound 41] gave an EC50 of 0.363 µM. For `Cc1ccc(NS(=O)(=O)c2cncs2)c2[nH]cc(C#N)c12` [Compound 42], a half-maximal response (EC50) required 0.0552 µM. The compound `Cc1noc(C)c1S(=O)(=O)Nc1ccc(C)c2c(C#N)c[nH]c12` [Compound 43] showed an EC50 of over 30 µM. The compound `Cc1ccc(NS(=O)(=O)c2ncc(CCO)s2)c2[nH]cc(C#N)c12` [Compound 44] came in with an EC50 of 0.904 µM. In the case of `Cc1ccc(NS(=O)(=O)c2ncc(-c3ccncn3)s2)c2[nH]cc(C#N)c12` [Compound 45] it was 0.394 µM; in that of `Cc1ccc(NS(=O)(=O)c2csc(C(F)(F)F)n2)c2[nH]cc(C#N)c12` [Compound 47], 0.097 µM. Take `Cc1ncc(S(=O)(=O)Nc2ccc(C)c3c(C#N)c[nH]c23)s1` [Compound 48]: the response was half-maximal at 0.125 µM (EC50).

`N#Cc1c[nH]c2c(NS(=O)(=O)c3csc(C(F)(F)F)n3)cccc12` [Compound 49]: the EC50 was found to be 0.19 µM. Compound `N#Cc1c[nH]c2c(NS(=O)(=O)c3cncs3)cccc12` [Compound 50, N-(3-cyano-1H-indol-7-yl)thiazole-5-sulfonamide] yielded an EC50 of 0.966 µM. `Cc1ncc(S(=O)(=O)Nc2cccc3c(C#N)c[nH]c23)s1` [Compound 51]: the EC50 was found to be 0.164 µM. `Cc1sc(S(=O)(=O)Nc2cccc3c(C#N)c[nH]c23)nc1Br` [Compound 55] had an EC50 of 0.302 µM. As for `Cc1ccc(NS(=O)(=O)c2nc(C(=O)O)cs2)c2[nH]cc(C#N)c12` [Compound 57], the EC50 is over 30 µM. For `CNC(=O)c1csc(S(=O)(=O)Nc2ccc(C)c3c(C#N)c[nH]c23)n1` [Compound 58], the EC50 was 1.08 µM. In the case of `Cc1ccc(NS(=O)(=O)c2nc(C(=O)N(C)C)cs2)c2[nH]cc(C#N)c12` [Compound 59] it was 0.802 µM. `Cc1ccc(NS(=O)(=O)c2nc(C(=O)N3CCCC3)cs2)c2[nH]cc(C#N)c12` [Compound 60] came in with an EC50 of 1.36 µM. Regarding `Cc1ccc(NS(=O)(=O)c2nc(C(=O)N3CCOCC3)cs2)c2[nH]cc(C#N)c12` [Compound 61], the EC50 worked out at 1.79 µM.

With `Cc1ccc(NS(=O)(=O)c2cscn2)c2[nH]cc(C#N)c12` [Compound 63], the EC50 was 1.17 µM.

As to `N#Cc1c[nH]c2c(NS(=O)(=O)c3cscn3)cccc12` [Compound 64], a half-maximal effect (EC50) was put at 3.44 µM. Consider `N#Cc1c[nH]c2c(NS(=O)(=O)c3nc(Br)cs3)cccc12` [Compound 65], for which it took 1.08 µM to reach a half-maximal effect (EC50). Compound `Cc1ccc(NS(=O)(=O)c2ncc(-c3cncnc3)s2)c2[nH]cc(C#N)c12` [Compound 67] had an EC50 of 0.52 µM.

`Cc1ccc(NS(=O)(=O)c2ncc(-c3ccnnc3)s2)c2[nH]cc(C#N)c12` [Compound 68] came in with an EC50 of 0.708 µM. Next, `Cc1ccc(NS(=O)(=O)c2ncc(-c3cc[nH]n3)s2)c2[nH]cc(C#N)c12` [Compound 69]: 0.421 µM. In turn, `Cc1ccc(NS(=O)(=O)c2ncc(-c3cn[nH]c3)s2)c2[nH]cc(C#N)c12` [Compound 70] returned an EC50 of 0.338 µM. With `Cc1ccc(NS(=O)(=O)c2ncc(-c3cocn3)s2)c2[nH]cc(C#N)c12` [Compound 71], the EC50 amounted to 0.532 µM.

On to `Cc1ccc(NS(=O)(=O)c2nc(C(N)=O)cs2)c2[nH]cc(C#N)c12` [Compound 72], for which the EC50 amounted to 0.431 µM. In turn, `CCN(CC)C(=O)c1csc(S(=O)(=O)Nc2ccc(C)c3c(C#N)c[nH]c23)n1` [Compound 73] displayed an EC50 of 0.738 µM. Regarding `Cc1ccc(NS(=O)(=O)c2nc(C(=O)NCCO)cs2)c2[nH]cc(C#N)c12` [Compound 74], the EC50 was 1.45 µM. `COCCNC(=O)c1csc(S(=O)(=O)Nc2ccc(C)c3c(C#N)c[nH]c23)n1` [Compound 75]: the concentration for a half-maximal effect (EC50) was determined as 2.18 µM. In the case of `Cc1ccc(NS(=O)(=O)c2nc(C(=O)N3CCC(O)C3)cs2)c2[nH]cc(C#N)c12` (centres unmarked) [Compound 76], the EC50 came to 3.32 µM. Compound `Cc1ccc(NS(=O)(=O)c2nc(C(=O)N3CCCCC3)cs2)c2[nH]cc(C#N)c12` [Compound 77] yielded a half-maximal effective concentration (EC50) of 0.828 µM. `Cc1ccc(NS(=O)(=O)c2nc(C(=O)N3CCNCC3)cs2)c2[nH]cc(C#N)c12` [Compound 78] yielded an EC50 of 3.25 µM.

The compound `Cc1ccc(NS(=O)(=O)c2nc(C(=O)N3CCN(C)CC3)cs2)c2[nH]cc(C#N)c12` [Compound 79] came in with an EC50 of 9.71 µM. The compound `Cc1ccc(NS(=O)(=O)c2cc(C3CC3)no2)c2[nH]cc(C#N)c12` [Compound 81] gave an EC50 of 0.0556 µM.

As for `Cc1nc(S(=O)(=O)Nc2ccc(C)c3c(C#N)c[nH]c23)c(C)s1` [Compound 82], it took 1.44 µM to reach a half-maximal effect (EC50). The compound `Cc1ccc(NS(=O)(=O)c2onc(C3CC3)c2Cl)c2[nH]cc(C#N)c12` [Compound 83] showed an EC50 of 0.105 µM. In the case of `COc1ncc(S(=O)(=O)Nc2ccc(C)c3c(C#N)c[nH]c23)s1` [Compound 84], it took 0.175 µM to reach a half-maximal effect (EC50). For `CCc1ncc(S(=O)(=O)Nc2ccc(C)c3c(C#N)c[nH]c23)s1` [Compound 85], the EC50 turned out to be 0.0959 µM.

The compound `Cc1nocc1S(=O)(=O)Nc1ccc(C)c2c(C#N)c[nH]c12` [Compound 86] came in with an EC50 of 2.07 µM. Turning to `N#Cc1c[nH]c2c(NS(=O)(=O)c3cc(C4CC4)no3)cccc12` [Compound 87], the EC50 is 0.277 µM.

For the compound `N#Cc1c[nH]c2c(NS(=O)(=O)c3onc(C4CC4)c3Cl)cccc12` [Compound 89], the EC50 is 0.174 µM.

Regarding `COc1ncc(S(=O)(=O)Nc2cccc3c(C#N)c[nH]c23)s1` [Compound 90], the concentration giving a half-maximal response (EC50) amounted to 0.389 µM. In the case of `CCc1ncc(S(=O)(=O)Nc2cccc3c(C#N)c[nH]c23)s1` [Compound 91], the EC50 was found to be 0.0766 µM. `Cc1scnc1S(=O)(=O)Nc1ccc(C)c2c(C#N)c[nH]c12` [Compound 93] showed an EC50 of 1.52 µM.

Regarding `Cc1ccc(NS(=O)(=O)c2cc(C(C)(C)C)no2)c2[nH]cc(C#N)c12` [Compound 94], the response was half-maximal at 0.0452 µM (EC50).

On to `Cc1ccc(NS(=O)(=O)c2csc(C(F)F)n2)c2[nH]cc(C#N)c12` [Compound 95], for which the EC50 turned out to be 0.104 µM. Next, `Cc1ccc(NS(=O)(=O)c2cnc(C3CC3)o2)c2[nH]cc(C#N)c12` [Compound 97]: 0.105 µM. Next, `Cc1ncc(S(=O)(=O)Nc2ccc(C)c3c(C#N)c[nH]c23)o1` [Compound 98]: 0.196 µM; `Cc1nc(Br)sc1S(=O)(=O)Nc1ccc(C)c2c(C#N)c[nH]c12` [Compound 99]: 0.518 µM. The compound `Cc1ccc(NS(=O)(=O)c2cnc(C(C)(C)C)o2)c2[nH]cc(C#N)c12` [Compound 100] came in with an EC50 of 0.364 µM. `O=S(=O)(Nc1cccc2cn[nH]c12)c1nccs1` [Compound 102] returned an EC50 of over 30 µM.
